Data: doi:10.1101/2023.06.20.545697v1 (biorxiv, 2023)
Values after ≈ are worked out from the molar mass of the structure shown.

Assays:
[1] = tested on: Mycobacterium tuberculosis S7; experiment: microbe, parasite or virus in culture; settings: S7, 120 h, read-out: MIC99 (S7) µM
[2] = tested on: Mycobacterium tuberculosis S6; experiment: microbe, parasite or virus in culture; settings: S6, 120 h, read-out: MIC99 (S6) µM

## CC(N)c1ncnn1C (stereo not shown) [SF1]
[1]
  MIC99: 250 µM (≈ 31.5 µg/mL)

## CC(C)C(N)c1ncnn1C (stereo not shown) [SF2]
[2]
  MIC99: 125 µM (≈ 19.3 µg/mL)
[1]
  MIC99: 125 µM (≈ 19.3 µg/mL)

## NCCSc1ncn[nH]1 [SF3]
[1]
  MIC99: 250 µM (≈ 36.1 µg/mL)
